Experimental data published in the supplement of paper PMC10307832.

Key:
Experiment in all cases: relative viability (nuclei count vs DMSO), 5 days (fraction); higher = more cells survive
17-AAG + Foretinib = compound: C=CCNC1=C2C[C@@H](C)C[C@H](OC)[C@H](O)[C@@H](C)/C=C(\C)[C@H](OC(N)=O)[C@@H](OC)/C=C\C=C(/C)C(=O)NC(=CC1=O)C2=O [17-AAG] + COc1cc2c(Oc3ccc(NC(=O)C4(C(=O)Nc5ccc(F)cc5)CC4)cc3F)ccnc2cc1OCCCN1CCOCC1 [Foretinib] (partner 0.25 µM)
In short: (§1)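 The day after seeding in 1536-well plates, lung cancer cell lines were treated by pin tool with a single drug, or with a fixed anchor-drug dose together with five library-drug doses (not always all listed) in √10 steps. After 5 days, a combined fix-and-stain solution (final 0.05% Triton X-100, 1% formaldehyde, 1 ug/ml Hoechst) was added. Nuclei counted on 4× images gave relative viability as treated counts over vehicle counts, reported as the median of duplicate plates.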

17-AAG + AZD7762 = compound: C=CCNC1=C2C[C@@H](C)C[C@H](OC)[C@H](O)[C@@H](C)/C=C(\C)[C@H](OC(N)=O)[C@@H](OC)/C=C\C=C(/C)C(=O)NC(=CC1=O)C2=O [17-AAG] + NC(=O)Nc1cc(-c2cccc(F)c2)sc1C(=O)N[C@H]1CCCNC1 [AZD7762] (partner 0.2 µM)
In short: as §1

17-AAG + Pictilisib = compound: C=CCNC1=C2C[C@@H](C)C[C@H](OC)[C@H](O)[C@@H](C)/C=C(\C)[C@H](OC(N)=O)[C@@H](OC)/C=C\C=C(/C)C(=O)NC(=CC1=O)C2=O [17-AAG] + CS(=O)(=O)N1CCN(Cc2cc3nc(-c4cccc5[nH]ncc45)nc(N4CCOCC4)c3s2)CC1 [Pictilisib] (partner 1 µM)
In short: as §1

17-AAG + Vorinostat = compound: C=CCNC1=C2C[C@@H](C)C[C@H](OC)[C@H](O)[C@@H](C)/C=C(\C)[C@H](OC(N)=O)[C@@H](OC)/C=C\C=C(/C)C(=O)NC(=CC1=O)C2=O [17-AAG] + O=C(CCCCCCC(=O)Nc1ccccc1)NO [Vorinostat] (partner 1 µM)
In short: as §1

| Cell Line | relative viability (17-AAG + Foretinib; first compound 0.00128 µM) | relative viability (17-AAG + Foretinib; first compound 0.004048 µM) | relative viability (17-AAG + Foretinib; first compound 0.0128 µM) | relative viability (17-AAG + Foretinib; first compound 0.04048 µM) | relative viability (17-AAG + Foretinib; first compound 0.128 µM) | relative viability (17-AAG + AZD7762; first compound 0.00128 µM) | relative viability (17-AAG + AZD7762; first compound 0.004048 µM) | relative viability (17-AAG + AZD7762; first compound 0.0128 µM) | relative viability (17-AAG + AZD7762; first compound 0.04048 µM) | relative viability (17-AAG + AZD7762; first compound 0.128 µM) | relative viability (17-AAG + Pictilisib; first compound 0.00128 µM) | relative viability (17-AAG + Pictilisib; first compound 0.004048 µM) | relative viability (17-AAG + Pictilisib; first compound 0.0128 µM) | relative viability (17-AAG + Pictilisib; first compound 0.04048 µM) | relative viability (17-AAG + Pictilisib; first compound 0.128 µM) | relative viability (17-AAG + Vorinostat; first compound 0.00128 µM) | relative viability (17-AAG + Vorinostat; first compound 0.004048 µM) | relative viability (17-AAG + Vorinostat; first compound 0.0128 µM) | relative viability (17-AAG + Vorinostat; first compound 0.04048 µM) | relative viability (17-AAG + Vorinostat; first compound 0.128 µM) |
| --- | --- | --- | --- | --- | --- | --- | --- | --- | --- | --- | --- | --- | --- | --- | --- | --- | --- | --- | --- | --- |
| NCI-H596 | 0.923 | 0.749 | 0.923 | 0.698 | 0.397 | 1.12 | 1.05 | 1.18 | 1.04 | 0.397 | 0.363 | 0.304 | 0.417 | 0.42 | 0.253 | 0.654 | 0.582 | 0.692 | 0.576 | 0.323 |
| NCI-H727 | 0.834 | 0.978 | 0.636 | 0.41 | 0.356 | 0.6 | 0.491 | 0.56 | 0.298 | 0.305 | 0.405 | 0.513 | 0.217 | 0.171 | 0.198 | 1.36 | 1.05 | 1.23 | 1.32 | 0.511 |
| NCI-H650 | 1.04 | 1.02 | 1 | 0.934 | 0.249 | 0.882 | 1.11 | 0.63 | 0.324 | 0.263 | 0.96 | 1.05 | 0.744 | 0.776 | 0.329 | 0.443 | 0.497 | 0.477 | 0.32 | 0.193 |
| 201T | 1.11 | 1.06 | 0.503 | 0.194 | 0.175 | 0.626 | 0.543 | 0.459 | 0.258 | 0.261 | 0.679 | 0.667 | 0.663 | 0.546 | 0.424 | 0.932 | 0.945 | 0.858 | 0.55 | 0.252 |
| PC-14 | 0.943 | 0.961 | 0.82 | 0.143 | 0.134 | 0.288 | 0.293 | 0.144 | 0.0832 | 0.129 | 0.654 | 0.219 | 0.057 | 0.067 | 0.0563 | 0.683 | 0.464 | 0.0532 | 0.081 | 0.056 |
| PC-3 [JPC-3] | 0.981 | 1.04 | 1.01 | – | 0.885 | 0.776 | 0.8 | 0.888 | 0.541 | 0.59 | 0.795 | 0.791 | 0.727 | – | 0.586 | 1 | 0.819 | 0.795 | 0.503 | 0.8 |
| LK-2 | 1.09 | 1.11 | 1.21 | 1.26 | 0.25 | 0.481 | 0.522 | 0.149 | 0.115 | 0.0799 | 0.725 | 0.659 | 0.6 | 0.208 | 0.175 | 0.323 | 0.445 | 0.178 | 0.174 | 0.236 |
| NCI-H1944 | 0.974 | 0.896 | 0.735 | 0.216 | 0.175 | 0.497 | 0.488 | 0.237 | 0.155 | 0.138 | 0.352 | 0.349 | 0.324 | 0.28 | 0.24 | 0.486 | 0.506 | 0.397 | 0.257 | 0.134 |
| HCC-78 | 0.525 | 0.574 | 0.611 | 0.516 | 0.499 | 0.599 | 0.821 | 0.666 | 0.155 | 0.352 | 0.238 | – | 0.333 | 0.24 | 0.212 | 0.441 | 0.42 | 0.47 | 0.689 | 0.413 |
| NCI-H3122 | 0.961 | 0.934 | 0.138 | 0.076 | 0.098 | 0.93 | 0.873 | 0.214 | 0.161 | 0.108 | 0.489 | 0.375 | 0.195 | 0.194 | 0.161 | 0.934 | 0.816 | 0.219 | 0.111 | 0.0733 |
| EMC-BAC-2 | 1.04 | 1.05 | 1.09 | 0.353 | 0.316 | 1.17 | 1.15 | 0.735 | 0.598 | 0.287 | 0.605 | 0.598 | 0.586 | 0.274 | 0.202 | 0.609 | 0.506 | 0.387 | 0.199 | 0.357 |
| NCI-H647 | 1.1 | 1.16 | 0.863 | 0.117 | 0.0874 | 0.487 | 0.175 | 0.0631 | 0.074 | 0.0589 | 0.454 | 0.253 | 0.0973 | 0.15 | 0.106 | 0.584 | 0.533 | 0.132 | 0.116 | 0.0825 |
| LCLC-97TM1 | 0.973 | 0.897 | 0.958 | 0.991 | 0.631 | 0.281 | 0.359 | 0.278 | 0.21 | 0.0815 | 0.263 | 0.228 | 0.211 | 0.13 | 0.104 | 0.848 | 0.668 | 0.634 | 0.44 | 0.0747 |
| H3255 | 0.943 | 0.874 | 0.819 | 0.252 | 0.249 | 0.876 | 1 | 0.674 | 0.252 | 0.245 | 0.424 | 0.453 | 0.463 | 0.203 | 0.154 | 0.898 | 0.864 | 0.82 | 0.282 | 0.292 |
| LXF-289 | 1.05 | 0.961 | 0.879 | 0.381 | 0.152 | 1.09 | 1.1 | 0.617 | 0.151 | 0.0926 | 0.823 | 0.805 | 0.239 | 0.107 | 0.0836 | 0.765 | 0.759 | 0.402 | 0.214 | 0.115 |
| NCI-H2347 | – | 1.03 | 0.859 | 0.35 | 0.413 | 0.891 | 0.578 | 0.472 | 0.26 | 0.22 | 0.671 | 0.478 | 0.508 | 0.717 | 0.43 | 0.569 | 0.557 | 0.524 | 0.329 | 0.379 |
| LC-2-ad | 0.891 | 0.898 | 0.515 | 0.343 | 0.261 | 0.841 | 0.835 | 0.714 | 0.297 | 0.161 | 0.567 | 0.617 | 0.123 | 0.124 | 0.0943 | 0.701 | 0.719 | 0.732 | 0.318 | 0.182 |
| A-427 | 1.11 | 0.983 | 1.05 | 1.2 | 0.847 | 0.819 | 0.798 | 0.618 | 0.268 | 0.234 | 0.684 | 0.737 | 0.765 | 0.748 | 0.286 | 0.875 | 0.849 | 0.867 | 0.373 | 0.298 |
| NCI-H441 | 0.903 | 0.862 | 0.39 | 0.211 | 0.0805 | 1.07 | 1.02 | 0.669 | 0.118 | 0.108 | 0.582 | 0.334 | 0.285 | 0.216 | 0.124 | 0.968 | 0.996 | 0.617 | 0.128 | 0.121 |
| HCC-366 | 0.958 | 0.968 | 0.89 | 0.126 | 0.0491 | 0.281 | 0.402 | 0.045 | 0.0325 | 0.0323 | 0.16 | 0.0822 | 0.0477 | 0.0368 | 0.0284 | 0.305 | 0.374 | 0.149 | 0.0397 | 0.0268 |
| NCI-H1975 | 1.02 | 0.904 | 0.288 | 0.136 | 0.118 | 0.753 | 0.656 | 0.331 | 0.203 | 0.216 | 0.3 | 0.176 | 0.116 | 0.119 | 0.103 | 0.716 | 0.597 | 0.311 | 0.157 | 0.152 |
| NCI-H1437 | 1.21 | 1.22 | 1.09 | 0.259 | 0.193 | 1.1 | 1.07 | 0.651 | 0.271 | 0.201 | 0.534 | 0.489 | 0.144 | 0.0969 | 0.0847 | 0.83 | 0.77 | 0.731 | 0.328 | 0.235 |
| NCI-H1651 | 0.788 | 0.664 | 0.423 | 0.15 | 0.161 | 0.463 | 0.512 | 0.482 | 0.364 | 0.136 | 0.568 | 0.54 | 0.363 | 0.148 | 0.131 | 0.538 | 0.536 | 0.545 | 0.578 | 0.492 |
| LCLC-103H | 0.874 | 0.818 | 0.736 | 0.932 | 1.01 | 0.756 | 0.755 | 0.742 | 0.834 | 0.835 | 0.58 | 0.583 | 0.669 | 0.73 | 0.712 | 0.883 | 0.844 | 0.731 | 0.832 | 0.818 |
| NCI-H1666 | 1.04 | 0.963 | 0.587 | 0.383 | 0.341 | 0.725 | 0.902 | 0.531 | 0.35 | 0.292 | 0.585 | 0.302 | 0.265 | 0.196 | 0.157 | 1.1 | 1.06 | 1.02 | 0.498 | 0.482 |
| NCI-H1734 | 0.895 | 0.951 | 0.856 | 0.282 | 0.18 | 0.547 | 0.53 | 0.268 | 0.214 | 0.131 | 0.447 | 0.468 | 0.361 | 0.205 | 0.151 | 0.77 | 0.851 | 0.574 | 0.271 | 0.132 |
| EPLC-272H | 0.704 | 0.412 | 0.772 | 0.216 | 0.125 | 0.208 | 0.3 | 0.207 | 0.13 | 0.101 | 0.291 | 0.32 | 0.291 | 0.169 | 0.168 | 0.398 | 0.426 | 0.109 | 0.115 | 0.0985 |
